Structures can show the parent of a compound that is named as a salt.
Legend:
[1] = Solubility in crystallization solvent (water/methanol/isopropyl acetate); assay type: physicochemical; conditions: 1:2:2 water/methanol/isopropyl acetate
Description: Step K: Preparation of 3-[2'-(N-Benzyl)sulfonamidobiphenyl-4-yl]methyl-5,7-dimethyl-2-ethyl-3H-imidazo[4,5-b]pyridine potassium salt--(Forms I, Id and W) [drawing 13] In a 72-L four-necked flask fitted with an overhead stirrer and a reflux condenser, 3-[2'-(N-benzyl)sulfonamidobiphenyl-4-yl]methyl-5,7-dimethyl-2-ethyl-3H-imidazo[4,5-b]pyridine 1 (5.04 kg, 9.6 mol), methanol (14.5 L) and water (2.5 L) are mixed. The slurry is warmed to 62° C. under a nitrogen atmosphere and 1.94M potassium hydroxide (4.96 L, 9.61 mol) is added to the slurry at 62° C. over 1.5 hours to provide a homogeneous solution. Isopropyl acetate (13.83 L) is then added at 65° C. and the mixture is warmed to 70° C. The homogeneous solution is filtered at 70° C. to remove any particulates that are present. The filtrate is diluted with isopropyl acetate (1.3 L), methanol (0.6 L) and water (0.1 L). […] The homogeneous mixture is cooled to 52° C. over 2 hours, whereupon potassium salt seed of form "I" (140 g) is added. This mixture becomes cloudy after 30 min. The mixture is aged for 10 hours at 52° C. The white slurry is cooled to 48° C. over 1 hour and stirred for 3 hours. […] The K-salt is considered dry when <0.05% methanol and isopropyl acetate are detected by ^1 H NMR. […] The water content can be monitored by TG analysis. […] The crystal form is monitored by X-ray analysis. […]

[2] = system: AT2 binding sites; conditions: background statement; cited from earlier work
[3] = system: AT1 receptors; conditions: background statement; cited from earlier work

SMILES: CCc1nc2c(C)cc(C)nc2n1Cc1ccc(-c2ccccc2S(=O)(=O)NC(=O)c2ccccc2)cc1 [3-[2'-(N-benzoyl)sulfonamidobiphenyl-4-yl]methyl-5,7-dimethyl-2-ethyl-3H-imidazo[4,5-b]pyridine potassium salt]
- solubility of the potassium salt at 0° C. ([1]; 0° C.): 15 mg/mL
- solubility of the potassium salt at 60° C. ([1]; 60° C.): 174 mg/mL
- affinity for AT2 binding sites [2]: low affinity
- affinity for AT1 receptors [3]: high affinity

— patent publication US5693812A, “Polymorphic forms of an angiotensin II antagonist” (priority 1996, dated 1997)
